Series [1] has as its target T1, recombinant serine protease domain of HGFA (Homo sapiens, UniProt Q04756).
T1 sequence (Q04756 408-646 limits assumed): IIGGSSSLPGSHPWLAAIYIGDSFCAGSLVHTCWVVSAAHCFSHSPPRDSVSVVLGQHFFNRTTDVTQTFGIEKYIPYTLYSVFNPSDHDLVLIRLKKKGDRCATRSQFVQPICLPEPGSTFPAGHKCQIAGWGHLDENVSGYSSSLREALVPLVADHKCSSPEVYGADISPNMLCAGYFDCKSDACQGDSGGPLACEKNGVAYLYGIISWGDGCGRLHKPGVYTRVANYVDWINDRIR
The series is described as follows: Fluorescent kinetic enzyme inhibition assay, HGFA. It is filed as biochemical.

The next series has as its target T2, matriptase (Homo sapiens, UniProt Q9Y5Y6).
T2 sequence (Q9Y5Y6 615-855 limits assumed): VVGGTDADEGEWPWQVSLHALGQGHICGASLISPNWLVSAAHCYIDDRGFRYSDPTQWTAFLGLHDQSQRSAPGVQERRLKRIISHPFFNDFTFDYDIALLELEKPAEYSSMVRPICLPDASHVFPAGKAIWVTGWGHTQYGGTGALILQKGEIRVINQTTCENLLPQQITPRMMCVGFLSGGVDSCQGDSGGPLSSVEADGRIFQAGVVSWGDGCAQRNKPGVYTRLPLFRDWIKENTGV
The experiment in a line: Fluorescent kinetic enzyme inhibition assay, matriptase. It is filed as biochemical.

The next series addresses Factor Xa (Homo sapiens, UniProt P00742). The series is described as follows: Chromogenic kinetic enzyme assay, Factor Xa. It is filed as biochemical.
Another series concerns the target thrombin (Homo sapiens, UniProt P00734). The series is described as follows: Chromogenic kinetic enzyme assay, thrombin. In kind it is biochemical.
Series [2] is described as follows: In vitro stability in mouse plasma. In kind it is in vitro ADME.
A short description of series [3]: In vitro stability in human plasma. It is filed as in vitro ADME.

Numbered stars: 1 amine (or outer) side, 2 acyl side, 3 side chain; on linkers, the order of the positions; unused ones are H or OH. Bridge positions count the residues as written; N and C are the ends. Square brackets hold non-standard residues; d marks the D form. Peptide text beside a SMILES is read from it. X1 = N=C(N)NCCC[C@H](N[*:1])C(=O)c1nc2ccc(C(=O)[*:2])cc2s1

Chain of Factor Xa (P00742 235-488 limits assumed): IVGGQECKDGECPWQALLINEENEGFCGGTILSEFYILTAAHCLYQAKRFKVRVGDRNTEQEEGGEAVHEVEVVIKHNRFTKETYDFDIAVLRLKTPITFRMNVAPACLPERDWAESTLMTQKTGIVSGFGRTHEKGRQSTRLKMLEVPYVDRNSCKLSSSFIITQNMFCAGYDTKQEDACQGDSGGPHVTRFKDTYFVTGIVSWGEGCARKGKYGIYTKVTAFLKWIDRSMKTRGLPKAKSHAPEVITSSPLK
Chain of Factor Xa (P00742 41-179 partner limits assumed): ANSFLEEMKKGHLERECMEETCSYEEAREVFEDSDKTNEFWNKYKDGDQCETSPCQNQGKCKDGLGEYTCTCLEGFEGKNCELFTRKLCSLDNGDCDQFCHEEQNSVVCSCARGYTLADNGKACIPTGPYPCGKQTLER

For `CC(=O)N[C@H]1CC(=O)NCCCC[C@@H](C(=O)N[C@@H](CCCNC(=N)N)C(=O)c2nc3ccc(C(=O)N[C@H](C(N)=O)C(C)C)cc3s2)NC(=O)[C@H](CC(C)C)NC1=O` [Compound 20, Ac-cyclo(DLK)-R- ketobenzothiazole-V-amide] (Ac-DLK[X1]V-NH2; lactam 1-3), the IC50 in series [1] amounted to 5380 nM; against matriptase it was 11 nM; against Factor Xa, 118 nM; on thrombin it was 34 nM. The half-life in series [2] and in series [3] was more than 4.82 h in each case.

One may read the IC50 as the concentration at which inhibition is half-maximal. One may read the half-life as how long it takes for the measured level to halve.

(Values after article PMC9307089 (Journal of medicinal chemistry, 2021).)
